Results as given in US7598244B2, “[1,2,4]triazolo[1,5,a]pyrimidin-2-ylurea derivative and use thereof” (Nippon Kayaku Kabushiki Kaisha, priority 2003, dated 2009).
Like-named read-outs stand apart in the source and are kept apart here. Each block holds one molecule with its values, some of them ahead of it.

Assays:
[1] = system: MHC class I molecules of T1 cells (human lymphoma cell line 174×CEM.); experiment: Effect on expression of MHC class I from T1 cells (flow cytometry, MFI); assay type: cell-based; conditions: 3 days culture
Summary of the method: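 EC20 is the compound level that lowers MHC class I MFI by 20% relative to compound-free cultures. Read-out was flow cytometry after FITC W6/32 staining.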

[2] = system: (C57BL/6XB6. C—H2^bml) F1 mice; experiment: Life-lengthening effect on graft versus host disease (GVHD); assay type: in vivo, mouse; conditions: oral, once a day
Experimental: Life-Lengthening Effect on Graft Versus Host Disease (GVHD)
The present test was carried out by modification of the method of Jonathan et al. (Jonathan et al., Blood, p. 93 (1999)). First, 6.0 Gy X-ray was applied to (C57BL/6XB6. C—H2^bml) F1 mice (produced by mating 6XB6.C—H2^bml mice (Jackson Laboratory) with C57BL/6 mice (Charles River Japan); female; 8 to 12-week-old). Thereafter, CD8 positive T cells (1.25×10^6 cells) prepared from the splenic cells of C57BL/6 mice (Charles River Japan; female; 8-week-old) were intravenously injected into the above (C57BL/6XB6. C—H2^bml) F1 mice. From the day before the injection, the test compound having each diluted concentration or 0.5% carboxymethyl cellulose used as a solvent was orally administered to the mice once a day for 7 to 30 consecutive days. The day on which the transplantation was conducted was defined as day 0. Based on the median of the survival days of each group, the prolongation rate of such survival dates was calculated using the following formula (7). Thus, the effect of the test compound on GVHD was analyzed.
[formula] • Eexp: Median of survival days of test compound administration group • Cexp: Median of survival days of solvent administration group

[3] = system: human dendritic cells cultured with human allogenic T cells; experiment: Effect on the ability of human dendritic cells to induce the growth of allogenic T cells ([3H]-thymidine incorporation); assay type: cell-based; conditions: dendritic cells treated 3 days with test compound and TNF-α, then 5 days with allogenic T cells, read-out: IC50 (inhibition of DNA synthesis of lymphocytes)
Experimental: Effect on the Ability of Human Dendritic Cells to Induce the Growth of Allogenic T Cells
Immature dendritic cells were cultured with a test compound and TNF-α for 3 days by the same method as that described in Test Example 2. The obtained dendritic cells (2.5×10^3 cells/50 μl/well) were cultured together with human allogenic T cells (2.0×10^5 cells/150 μl/well) in a 96-well flat bottom plate at 37° C. for 5 days in an incubator containing 5% carbon dioxide. Thereafter, [^3H]-thymidine (Amersham Pharmacia Biotech) was added thereto at an amount of 1 μCi/10 μl/well, 16 hours before completion of the culture. After completion of the culture, cells were captured on a glass filter using a cell harvester (Skatron Instrument) and then dried. Thereafter, Scintillator ACS-II (Amersham Pharmacia Biotech) was added thereto, and the radioactivity of [^3H]-thymidine incorporated into the cells were then measured using a liquid scintillation counter. The inhibition rate of the DNA synthesis of lymphocytes was calculated using the following formula (3). Thereafter, the concentration of a test compound necessary for inhibition of 50% (IC50 value) was obtained.
[formula] • Eexp: The amount of [^3H]-thymidine incorporated into cultured cells containing test compound • Cexp: The amount of [^3H]-thymidine incorporated into cultured cells containing no test compounds

mouse splenic cells = experiment: Inhibitory action on blastogenesis of mouse splenic cells ([3H]-thymidine incorporation); assay type: cell-based; conditions: 72 hours
Experimental: Inhibitory Action on Blastogenesis of Mouse Splenic Cells
The spleen was excised from each of BALB/c mice (Charles River Japan; female; 10-week-old), and it was allowed to pass through a mesh to obtain a single cell suspension. This single cell suspension was prepared to be 1.0×10^6 cells/ml. Thereafter, 200 μl of the suspension was fractionated into each well of a 96-well plate. Thereafter, as blastogenic stimulation, 5 μg/ml concanavalin A (Pharmacia) or 25 μg/ml Escherichia coli-derived lipopolysaccharide (DIFCO) was added to the well, and then, a solution containing a test compound with each different concentration was further added thereto at an amount of 20 μl/well. The obtained mixture was cultured at 37° C. for 72 hours in an incubator containing 5% carbon dioxide. Thereafter, a 1 μCi/10 μl/well [^3H]-thymidine solution was added thereto 64 hours after initiation of the culture. After completion of the culture (72 hours later), the cells were captured on a filter using a cell harvester, and they were then dried. Thereafter, scintillator was added thereto, and the radioactivity of [^3H]-thymidine incorporated into the cells was then measured using a liquid scintillation counter. The inhibition rate of the DNA synthesis was calculated using the aforementioned formula (3). Thereafter, the concentration of a test compound necessary for inhibition of 50% (IC50 value) was obtained.

[4] = system: MHC class I molecules of human peripheral blood-derived dendritic cells; experiment: Effect on expression of MHC class I molecules from human peripheral blood-derived dendritic cells; assay type: cell-based; conditions: dendritic cells matured with TNF-α, 3 days; read-out: EC50 (reduction of 50% of the number of cells wherein MHC class I molecules were highly expressed)
Source text: Effect on Expression of MHC Class I Molecules from Human Peripheral Blood-Derived Dendritic Cells
Monocytes were isolated from human peripheral blood by the specific gravity centrifugation method. Thereafter, using mouse anti-human CD14 antibody-binding microbeads and a magnetic cell separation system (Miltenyi Biotec), CD14 positive cells were separated from the peripheral blood monocytes. The separated CD14 positive cells were suspended in an RPMI 1640 medium containing 10% FBS, and the suspension was then inoculated in a 6-well plate, resulting in a concentration of 1.0×10^6 cells/well. It was cultured at 37° C. for 20 minutes in an incubator containing 5% carbon dioxide. […] Thereafter, RPMI 1640 containing a 500 U/ml human recombinant […] (hereinafter referred to as GM-CSF; Anapure Bioscientific), 50 ng/ml human recombinant interleukin 4 (hereinafter referred to as IL-4; Pepro Tech), and 10% FBS, was added to the remaining suspension at a concentration of 2 ml/well. The obtained mixture was then cultured at 37° C. in an incubator containing 5% carbon dioxide. When adhesive CD14 positive cells are cultured in the presence of GM-CSF and IL-4, the CD14 positive cells were differentiated into non-adhesive immature dendritic cells. After the cells had been cultured for 7 days, non-adhesive cells were recovered to obtain immature dendritic cells. Using a 6-well plate, the immature dendritic cells (2.5×10^5 cells/well) were cultured in RPMI 1640 containing a 100 U/ml human recombinant tumor necrosis factor-α (hereinafter referred to as TNF-a; Pepro Tech), a test compound, and 10% FBS, at 37° C. for 3 days in an incubator containing 5% carbon dioxide. The dendritic cells became mature as a result of the presence of TNF-α, but in the present test, a test compound was allowed to simultaneously act on the cells. The mature dendritic cells were then stained with fluoroisothiocyanate-labeled mouse anti-human MHC class I monoclonal antibody (an antibody generated from the cell line W6/32 (ATCC No. CRL 1991)). The rate of the number of cells wherein MHC class I molecules were highly expressed to the total number of cells was measured by flow cytometry. The reduction rate of the number of cells wherein MHC class I molecules were highly expressed was calculated using the following formula (2), and the concentrations of test compounds necessary for reduction of 50% (EC50 values) were obtained.
[formula] • Eexp: (The number of cells, wherein MHC class I molecules are highly expressed, in cultured cells containing test compound)/(the total number of cells) • Cexp: (The number of cells, wherein MHC class I molecules are highly expressed, in cultured cells containing no test compounds)/(the total number of cells)

BALB/c mice = experiment: Effect on mouse delayed-type hypersensitivity reaction (DTH reaction), swelling of the sole; assay type: in vivo; conditions: Intraperitoneal, administration period 7 days, 100 mg/kg/single administration
Experimental: Effect on Mouse Delayed-Type Hypersensitivity Reaction (DTH Reaction)
1.0×10^5 sheep erythrocytes (Nippon Seibutsu Zairyo Center, Co., Ltd.) were administered to each of BALB/c mice (Charles River Japan, Inc.; female; 8-week-old) by intravenous injection for sensitization. From the day of administration of the sheep erythrocytes, a test compound was administered to the mouse. As a control, a 0.5% carboxymethyl cellulose (CMC)-Na solution and a normal saline solution used as solvents were administered to the same type of mouse via oral administration or intraperitoneal administration. Five days after the antigen sensitization, 1.0×10^8 sheep erythrocytes were subcutaneously injected into the sole of the mouse. 24 hours later, the thickness of the sole was measured. The value obtained by subtracting the mean value of the thicknesses of the soles of mice, to which a normal saline solution had been administered instead of the sheep erythrocytes, from the above measurement value, was defined as swelling of the sole generated as a result of the DTH reaction. The inhibition rate of the swelling of the sole caused by the DTH reaction was calculated using the following formula (5). The amount of the test compound necessary for inhibition of 50% (ED50 value) was obtained as the activity of the test compound to inhibit the DTH reaction. It is to be noted that cyclosporin A was used as a positive control.
[formula] • Eexp: Swelling of sole of mouse to which test compound was administered • Cexp: Swelling of sole of mouse to which solvent was administered

[5] = Mus musculus, Lymphocyte, 5 μg/ml concanavalin A, read-out: Lymphocyte blastogenesis IC50 (μM), ConA stimulation
[6] = Mus musculus, Lymphocyte, 25 μg/ml Escherichia coli-derived lipopolysaccharide, read-out: Lymphocyte blastogenesis IC50 (μM), LPS stimulation
[7] = 100 mg/kg/single administration

SMILES: COc1ccc(-c2ccnc3nc(NC(=O)NC(C)CCCC(C)(C)O)nn23)cc1 (racemic) [Example 219]
- EC20 (concentration necessary for suppressing 20% of the expression level of MHC class I molecules) [1]: 0.05 µM
- Lengthening rate of survival days (%) ([2]; 25 mg/kg/single administration): 200%

SMILES: COc1ccc(-c2ccnc3nc(NC(=O)NC(C)CCC(C)(C)O)nn23)cc1 (racemic) [Example 317, (±)-1-(4-hydroxy-1,4-dimethylpentyl)-3-[7-(4-methoxyphenyl)-[1,2,4]triazolo[1,5-a]pyrimidin-2-yl]urea]
- EC20 (concentration necessary for suppressing 20% of the expression level of MHC class I molecules) [1]: 0.06 µM
- Lengthening rate of survival days (%) ([2]; 30 mg/kg/single administration): 24%

- IC50 (mouse splenic cells; [5]): 0.41 µM
- IC50 (mouse splenic cells; [6]): 0.09 µM
- EC50 [4]: 0.12 µM
SMILES: COc1ccc(-c2ccnc3nc(NC(=O)NC(C(=O)OC(C)(C)C)C(C)C)nn23)cc1 (stereo not shown) [Example 045]
- IC50 ([3]; Homo sapiens): 0.28 µM
- EC20 (concentration necessary for suppressing 20% of the expression level of MHC class I molecules) [1]: 0.03 µM

- IC50 (mouse splenic cells; [5]): 0.58 µM
- IC50 (mouse splenic cells; [6]): 0.18 µM
- EC50 [4]: 0.22 µM
SMILES: COc1ccc(-c2ccnc3nc(NC(=O)N[C@@H](C)c4ccccc4)nn23)cc1 [Example 101]
- IC50 ([3]; Homo sapiens): 0.625 µM
- EC20 (concentration necessary for suppressing 20% of the expression level of MHC class I molecules) [1]: 0.21 µM

SMILES: COc1ccc(-c2ccnc3nc(NC(=O)N[C@@H](C)c4cccc(OC)c4)nn23)cc1 [Example 132]
- IC50 [3]: 0.625 µM
- EC20 (concentration necessary for suppressing 20% of the expression level of MHC class I molecules) [1]: 0.039 µM
- IC50 (mouse splenic cells; 5 μg/ml concanavalin A, read-out: Lymphocyte blastogenesis IC50 (μM), ConA stimulation): 0.08 µM
- IC50 (mouse splenic cells; 25 μg/ml Escherichia coli-derived lipopolysaccharide, read-out: Lymphocyte blastogenesis IC50 (μM), LPS stimulation): 0.06 µM
- Lengthening rate of survival days (%) [2, 7]: 200%

SMILES: COc1ccc(-c2ccnc3nc(NC(=O)N[C@H](C(=O)NCCN4CCCCC4)C(C)C)nn23)cc1.Cl [Example 135]
- EC20 (concentration necessary for suppressing 20% of the expression level of MHC class I molecules) [1]: 0.81 µM
- Inhibition rate (%) of swelling of the sole (BALB/c mice): 40.2%

SMILES: CCOCCC(C)NC(=O)Nc1nc2nccc(-c3ccc(OC)cc3)n2n1 (stereo not shown) [Example 274]
- EC20 (concentration necessary for suppressing 20% of the expression level of MHC class I molecules) [1]: 0.11 µM
- Lengthening rate of survival days (%) [2, 7]: 55%

SMILES: COc1cccc([C@H](C)NC(=O)Nc2nc3nccc(-c4ccc5c(c4)OCO5)n3n2)c1 [Example 300, (S)-1-[1-(3-methoxyphenyl)ethyl]-3-[7-(3,4-methylenedioxyphenyl)-[1,2,4]triazolo[1,5-a]pyrimidin-2-yl]urea]
- EC20 (concentration necessary for suppressing 20% of the expression level of MHC class I molecules) [1]: 0.019 µM
- Lengthening rate of survival days (%) ([2]; 10 mg/kg/single administration): 100%

SMILES: COc1ccc(-c2ccnc3nc(NC(=O)N[C@@H](C)CCCC(C)(C)O)nn23)cc1 [Example 319, (S)-1-(5-hydroxy-1,5-dimethylhexyl)-3-[7-(4-methoxyphenyl)-[1,2,4]triazolo[1,5-a]pyrimidin-2-yl]urea]
- EC20 (concentration necessary for suppressing 20% of the expression level of MHC class I molecules) [1]: 0.02 µM
- Lengthening rate of survival days (%) ([2]; 10 mg/kg/single administration): 200%
- Lengthening rate of survival days (%) ([2]; 50 mg/kg/single administration): 200%
